Reference: ChEMBL document CHEMBL5523747, “Discovery of a Series of Orally Bioavailable Androgen Receptor Degraders for the Treatment of Prostate Cancer” (J Med Chem, 2024)
Each block holds one compound with its values, some of them ahead of it. Calls of active or inactive are those of the source. The calls are words filed in the database; no cut-off is given here.

Legend:
[1] = target: T1, Protein cereblon/Androgen receptor (Homo sapiens, UniProt P10275+Q96SW2); test: PROTAC activity at AR/CRBN in human LNCaP cells assessed as protein degradation measured after 24 hrs incubation by imaging IF assay; format: cell-based
Target sequence in this assay (P10275 whole entry): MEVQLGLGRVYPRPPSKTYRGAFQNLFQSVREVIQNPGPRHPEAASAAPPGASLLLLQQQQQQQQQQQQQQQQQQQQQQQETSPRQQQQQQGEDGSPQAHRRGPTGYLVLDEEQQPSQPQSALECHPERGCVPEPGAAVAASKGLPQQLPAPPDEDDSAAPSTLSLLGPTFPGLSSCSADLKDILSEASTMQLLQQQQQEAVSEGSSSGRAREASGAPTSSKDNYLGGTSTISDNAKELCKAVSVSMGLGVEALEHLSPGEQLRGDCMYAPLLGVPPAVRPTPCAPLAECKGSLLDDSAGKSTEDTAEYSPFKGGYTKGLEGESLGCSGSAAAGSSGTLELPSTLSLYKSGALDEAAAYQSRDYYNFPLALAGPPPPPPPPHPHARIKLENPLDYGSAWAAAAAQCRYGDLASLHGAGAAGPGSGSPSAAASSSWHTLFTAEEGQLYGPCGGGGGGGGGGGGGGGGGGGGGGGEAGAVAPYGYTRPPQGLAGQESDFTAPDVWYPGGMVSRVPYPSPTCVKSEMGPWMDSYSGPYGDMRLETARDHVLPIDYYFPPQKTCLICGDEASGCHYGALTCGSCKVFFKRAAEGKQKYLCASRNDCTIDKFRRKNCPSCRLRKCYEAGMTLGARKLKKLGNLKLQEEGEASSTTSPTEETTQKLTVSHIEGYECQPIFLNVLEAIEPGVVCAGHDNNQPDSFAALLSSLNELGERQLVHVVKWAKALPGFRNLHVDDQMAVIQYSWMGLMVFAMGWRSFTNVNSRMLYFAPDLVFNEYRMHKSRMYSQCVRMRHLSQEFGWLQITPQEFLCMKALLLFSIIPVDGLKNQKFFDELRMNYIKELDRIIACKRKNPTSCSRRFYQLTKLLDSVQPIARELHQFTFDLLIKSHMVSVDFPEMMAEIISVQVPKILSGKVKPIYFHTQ
Target sequence in this assay (Q96SW2 whole entry): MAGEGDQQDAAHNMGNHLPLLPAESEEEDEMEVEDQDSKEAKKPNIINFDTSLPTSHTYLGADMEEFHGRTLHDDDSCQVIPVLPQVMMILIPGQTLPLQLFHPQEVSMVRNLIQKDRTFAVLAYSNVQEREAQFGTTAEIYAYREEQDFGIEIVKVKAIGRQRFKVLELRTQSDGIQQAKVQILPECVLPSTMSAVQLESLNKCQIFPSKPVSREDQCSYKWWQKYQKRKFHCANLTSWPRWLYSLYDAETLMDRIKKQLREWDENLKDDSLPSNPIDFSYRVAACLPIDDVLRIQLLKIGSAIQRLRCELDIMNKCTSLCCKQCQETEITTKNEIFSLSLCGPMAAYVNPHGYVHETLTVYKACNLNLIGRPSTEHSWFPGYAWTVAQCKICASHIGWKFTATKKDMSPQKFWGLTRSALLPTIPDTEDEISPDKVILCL

[2] = target: T1, Protein cereblon/Androgen receptor; test: PROTAC activity at AR/CRBN in human LNCaP cells assessed as maximal protein degradation measured after 24 hrs incubation by imaging IF assay relative to control; format: cell-based
Target sequence in this assay (P10275 whole entry, looked up): as the sequence (P10275 whole entry) above
Target sequence in this assay (Q96SW2 whole entry, looked up): as the sequence (Q96SW2 whole entry) above

[3] = target: Protein cereblon/Androgen receptor (Homo sapiens, UniProt P10275+Q96SW2, L702H); test: PROTAC activity at CRBN/AR L702H mutant (unknown origin) expressed in human LNCaP cells assessed as protein degradation measured after 24 hrs incubation by imaging IF assay; format: cell-based
[4] = Volume of distribution at steady state in CD-1 mouse at 1 mg/kg, po and 0.5 mg/kg, iv; format: ADME, organism-based; conditions: in vivo
[5] = Half life in CD-1 mouse at 1 mg/kg, po and 0.5 mg/kg, iv; format: ADME, organism-based; conditions: in vivo
[6] = Oral bioavailability in CD-1 mouse at 1 mg/kg; format: ADME, organism-based; conditions: in vivo
[7] = test system: Protein cereblon/Androgen receptor (Homo sapiens), P10275+Q96SW2 [L702H]; test: PROTAC activity at CRBN/AR L702H mutant (unknown origin) expressed in human LNCaP cells assessed as maximal protein degradation measured after 24 hrs incubation by imaging IF assay relative to control; format: cell-based
[8] = Metabolic stability in human liver microsomes assessed as intrinsic clearance; format: ADME, Microsome; conditions: read-out: CLH
[9] = test system: LNCaP C4-2; test: In vivo degradation of AR in human LNCaP C4-2 cells xenografted in mouse model assessed as tumor growth inhibition at 50 mg/kg, po once daily measured after 28 days relative to control; format: functional, organism-based; conditions: time 28.0 day
[10] = test system: LNCaP C4-2; test: In vivo degradation of AR in human LNCaP C4-2 cells xenografted in mouse model assessed as tumor growth inhibition at 10 mg/kg, po once daily measured after 28 days relative to control; format: functional, organism-based; conditions: time 28.0 day
[11] = Oral bioavailability in Beagle dog at 1 mg/kg; format: ADME, organism-based, Canis lupus familiaris; conditions: in vivo
[12] = Half life in CD-1 mouse at 1 mg/kg, po and 0.5 mg/kg, iv bolus; format: ADME, organism-based; conditions: in vivo
[13] = Volume of distribution at steady state in Beagle dog at 1 mg/kg, po and 0.5 mg/kg, iv infusion over 0.25 hrs; format: ADME, organism-based, Canis lupus familiaris; conditions: in vivo
[14] = Volume of distribution at steady state in Han Wistar rat at 1 mg/kg, po and 0.5 mg/kg, iv bolus; format: ADME, organism-based; conditions: in vivo
[15] = Aqueous solubility of compound at pH 7.4 buffer; format: physicochemical
[16] = Volume of distribution at steady state in CD-1 mouse at 1 mg/kg, po and 0.5 mg/kg, iv bolus; format: ADME, organism-based; conditions: in vivo
[17] = Permeability of compound in human Caco-2 cells; format: ADME, cell-based
[18] = Oral bioavailability in Han Wistar rat at 1 mg/kg; format: ADME, organism-based; conditions: in vivo
[19] = Half life in Han Wistar rat at 1 mg/kg, po and 0.5 mg/kg, iv bolus; format: ADME, organism-based; conditions: in vivo
[20] = Half life in Beagle dog at 1 mg/kg, po and 0.5 mg/kg, iv infusion over 0.25 hrs; format: ADME, organism-based, Canis lupus familiaris; conditions: in vivo
[21] = test system: LNCaP; test: Effect on AR mRNA level in human LNCaP cells at 0.0001 to 10 uM measured after 24 hrs incubation by QRTPCR analysis; format: functional, cell-based; conditions: dose 0.0001-10 µM
[22] = Total plasma concentration in mouse xenografted with human LNCaP C4-2 cells at 30 mg/kg, po once daily measured after 10 days; format: ADME, organism-based; conditions: time 10 day, read-out: Cp(T)
[23] = target: T1, Protein cereblon/Androgen receptor; test: PROTAC activity at AR/CRBN in androgen-independent human LNCaP C4-2 cells assessed as protein degradation at 0.0001 to 10 uM measured after 24 hrs incubation by Western blot analysis; format: cell-based; conditions: dose 0.0001-10 µM
Target sequence in this assay (P10275 whole entry, looked up): as the sequence (P10275 whole entry) above
Target sequence in this assay (Q96SW2 whole entry, looked up): as the sequence (Q96SW2 whole entry) above

[24] = test system: LNCaP C4-2; test: In vivo antitumor activity in human LNCaP C4-2 cells xenografted in mouse model assessed as tumor growth inhibition at 30 mg/kg, po once daily measured after 28 days relative to control; format: functional; conditions: LNCaP C4-2, 672 h, time 28 day, read-out: TGI
[25] = target: T1, Protein cereblon/Androgen receptor; test: PROTAC activity at AR/CRBN in human LNCaP cells assessed as protein degradation measured after 24 hrs incubation in presence of excess lenalidomide CRBN ligand by imaging IF assay; format: cell-based
Target sequence in this assay (P10275 whole entry, looked up): as the sequence (P10275 whole entry) above
Target sequence in this assay (Q96SW2 whole entry, looked up): as the sequence (Q96SW2 whole entry) above

[26] = target: T1, Protein cereblon/Androgen receptor; test: PROTAC activity at AR/CRBN in adrogen-sensitive human VCaP cells assessed as protein degradation at 0.0001 to 10 uM measured after 24 hrs incubation by Western blot analysis; format: cell-based; conditions: dose 0.0001-10 µM
Target sequence in this assay (P10275 whole entry, looked up): as the sequence (P10275 whole entry) above
Target sequence in this assay (Q96SW2 whole entry, looked up): as the sequence (Q96SW2 whole entry) above

[27] = target: T1, Protein cereblon/Androgen receptor; test: PROTAC activity at AR/CRBN in human LNCaP cells assessed as protein degradation measured after 24 hrs incubation in presence of excess enzalutamide AR binder by imaging IF assay; format: cell-based
Target sequence in this assay (P10275 whole entry, looked up): as the sequence (P10275 whole entry) above
Target sequence in this assay (Q96SW2 whole entry, looked up): as the sequence (Q96SW2 whole entry) above

[28] = test system: LNCaP C4-2; test: In vivo degradation of AR in human LNCaP C4-2 cells xenografted in mouse model assessed as degradation at 30 mg/kg, po once daily measured after 10 days relative to control; format: functional; conditions: time 10 day
[29] = test system: LNCaP; test: Anti-proliferative activity against human LNCaP cells assessed as number of live cells measured after 7 days by Sytox Green Nucleic Acid stain assay; format: functional; conditions: 168 h, time 7 day
[30] = target: von Hippel-Lindau disease tumor suppressor/Androgen receptor (Homo sapiens) (UniProt P10275+P40337); test: PROTAC activity at AR/VHL in human LNCaP cells assessed as maximal protein degradation measured after 24 hrs incubation by imaging IF assay relative to control; format: cell-based
von Hippel-Lindau disease tumor suppressor/Androgen receptor (Homo sapiens), sequence (P10275 whole entry, looked up): as the sequence (P10275 whole entry) above
von Hippel-Lindau disease tumor suppressor/Androgen receptor (Homo sapiens), sequence (P40337 whole entry, looked up): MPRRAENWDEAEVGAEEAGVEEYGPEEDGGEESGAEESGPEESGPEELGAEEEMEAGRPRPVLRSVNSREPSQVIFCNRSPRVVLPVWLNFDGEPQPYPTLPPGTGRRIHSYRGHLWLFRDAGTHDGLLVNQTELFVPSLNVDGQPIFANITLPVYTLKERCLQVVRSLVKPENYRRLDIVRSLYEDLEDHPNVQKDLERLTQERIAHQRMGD

Protein cereblon/Androgen receptor (Homo sapiens, UniProt P10275+Q96SW2, L702H), sequence (P10275 whole entry L702H, stated change not applied): as the sequence (P10275 whole entry) above, with L702H counted along it
Protein cereblon/Androgen receptor (Homo sapiens, UniProt P10275+Q96SW2, L702H), sequence (Q96SW2 whole entry, stated change not applied): as the sequence (Q96SW2 whole entry) above

Compound: Cc1c(N2CCC(c3ccc(N4CCC(CN5CCN(c6ccc7c(c6)CN(C6CCC(=O)NC6=O)C7=O)CC5)CC4)cc3)CC2)ccc(C#N)c1C(F)(F)F (centres undefined)
DC50 [1]: 0.152 µM
Emax [2]: 70%
DC50 [3]: > 3 µM

Compound: N#Cc1ccc(N2CCC(c3ccc(OCCCCN4CCN(c5ccc6c(c5)CN(C5CCC(=O)NC5=O)C6=O)CC4)cc3)CC2)c(F)c1C(F)(F)F (centres undefined)
Vdss [4]: 3.4 L/kg
half-life [5]: 7 h
DC50 [1]: 0.009 µM
bioavailability [6]: 30%
Emax [7]: 78%
Emax [2]: 100%
DC50 [3]: 0.107 µM

Compound: COc1cc(N2CCN(CC3CCN(c4cc(F)c(C5CCN(c6ccc(C#N)c(C(F)(F)F)c6F)CC5)c(F)c4)CC3)CC2)cc2c1C(=O)N(C1CCC(=O)NC1=O)C2 (centres undefined)
Vdss [4]: 3.6 L/kg
half-life [5]: 41 h
DC50 [1]: 0.018 µM
bioavailability [6]: 30%
Emax [7]: 80%
Emax [2]: 100%
DC50 [3]: 0.633 µM

Compound: COc1cc(N2CCN(CC3CCN(c4ccc(C5CCN(c6ccc(C#N)c(C(F)(F)F)c6F)CC5)c(F)c4)CC3)CC2)cc2c1C(=O)N(C1CCC(=O)NC1=O)C2 (centres undefined)
Vdss [4]: 2.2 L/kg
half-life [5]: 17 h
DC50 [1]: 0.012 µM
bioavailability [6]: 50%
Emax [7]: 100%
Emax [2]: 100%
DC50 [3]: 0.469 µM

DC50 [1]: 0.016 µM
microsomal CLint [8]: 5 µL/min/mg
Emax [2]: 79%
Compound: N#Cc1ccc(N2CCC(c3ccc(OCCCN4CCN(c5ccc6c(c5)CN(C5CCC(=O)NC5=O)C6=O)CC4)cc3)CC2)cc1C(F)(F)F (centres undefined)

Compound: N#Cc1ccc(N2CCC(c3ccc(N4CCC(CN5CCN(c6ccc7c(c6)CN(C6CCC(=O)NC6=O)C7=O)CC5)CC4)cc3)CC2)c(Cl)c1C(F)(F)F (centres undefined)
DC50 [1]: 0.048 µM
Emax [2]: 80%
DC50 [3]: 0.144 µM

Compound: CNC(=O)c1ccc(N2C(=S)N(c3ccc(C#N)c(C(F)(F)F)c3)C(=O)C2(C)C)cc1F
Activity [9]: Active

Compound: N#Cc1ccc(O[C@H]2CC[C@H](NC(=O)c3ccc(N4CCC(CN5CCN(c6cc7c(cc6F)C(=O)N(C6CCC(=O)NC6=O)C7=O)CC5)CC4)nn3)CC2)cc1Cl (some centres undefined)
Activity [10]: Active

Compound: N#Cc1ccc(N2CCC(c3ccc(N4CCC(CN5CCN(c6ccc7c(c6)CN(C6CCC(=O)NC6=O)C7=O)CC5)CC4)cc3)CC2)cc1C(F)(F)F (centres undefined)
Vdss [4]: 4.5 L/kg
half-life [5]: 19 h
DC50 [1]: 0.018 µM
microsomal CLint [8]: 3 µL/min/mg
bioavailability [6]: 46%
Emax [2]: 85%
DC50 [3]: > 3 µM

DC50 [1]: 0.015 µM
microsomal CLint [8]: 12 µL/min/mg
Emax [2]: 94%
Compound: N#Cc1ccc(N2CCC(c3ccc(OCCCCCN4CCN(c5ccc6c(c5)CN(C5CCC(=O)NC5=O)C6=O)CC4)cc3)CC2)cc1C(F)(F)F (centres undefined)

Compound: N#Cc1ccc(N2CCC(c3ccc(N4CCC(CN5CCN(c6cc7c(cc6F)C(=O)N(C6CCC(=O)NC6=O)C7=O)CC5)CC4)cc3)CC2)c(F)c1C(F)(F)F (centres undefined)
DC50 [1]: 0.087 µM
Emax [7]: 100%
Emax [2]: 100%
DC50 [3]: 0.992 µM

Compound: N#Cc1ccc(N2CCC(c3ccc(OCCCCN4CCN(c5ccc6c(c5)CN(C5CCC(=O)NC5=O)C6=O)CC4)cc3)CC2)cc1C(F)(F)F (centres undefined)
bioavailability [11]: 8%
half-life [12]: 5 h
Vdss [13]: 7.1 L/kg
Vdss [4]: 5.2 L/kg
Vdss [14]: 6.2 L/kg
solubility [15]: < 2 µM
half-life [5]: 5 h
Vdss [16]: 5.2 L/kg
DC50 [1]: 0.007 µM
Papp [17]: < 0.05 ×10⁻⁶ cm/s
microsomal CLint [8]: 10 µL/min/mg
bioavailability [6]: 47%
bioavailability [18]: 20%
half-life [19]: 6.6 h
Emax [2]: 97%
half-life [20]: 53.5 h
DC50 [3]: > 3 µM

DC50 [1]: 0.18 µM
microsomal CLint [8]: < 3 µL/min/mg
Emax [2]: 92%
Compound: N#Cc1ccc(N2CCC(c3ccc(N4CCC(CN5CCN(c6cc7c(cc6F)C(=O)N(C6CCC(=O)NC6=O)C7)CC5)CC4)cc3)CC2)cc1C(F)(F)F (centres undefined)

Compound: COc1cc(N2CCN(CC3CCN(c4ccc(C5CCN(c6ccc(C#N)c(C(F)(F)F)c6F)CC5)cc4)CC3)CC2)cc2c1C(=O)N(C1CCC(=O)NC1=O)C2 (centres undefined)
Activity [21]: inactive
concentration at 240 h [22]: ~20 µM
bioavailability [11]: 18%
half-life [12]: 9 h
Vdss [13]: 2.4 L/kg
Vdss [4]: 1.5 L/kg
Activity [23]: Active
inhibition in vivo at 30 mg/kg [24]: 70%
Activity [25]: inactive
Vdss [14]: 9 L/kg
Activity [26]: Active
Activity [27]: inactive
half-life [5]: 9 h
Vdss [16]: 1.5 L/kg
DC50 [1]: 0.022 µM
Activity [28]: >90%
bioavailability [6]: 62%
Emax [7]: 74%
bioavailability [18]: 29%
half-life [19]: 11 h
Emax [2]: 96%
half-life [20]: 12.5 h
GI50 [29]: 0.074 µM
DC50 [3]: 0.092 µM

Compound: N#Cc1ccc(N2CCC(c3ccc(N4CCC(CN5CCN(c6ccc7c(c6)C(=O)N(C6CCC(=O)NC6=O)C7=O)CC5)CC4)cc3)CC2)c(F)c1C(F)(F)F (centres undefined)
Vdss [4]: 6.2 L/kg
half-life [5]: 32 h
DC50 [1]: 0.17 µM
bioavailability [6]: 77%
Emax [7]: 100%
Emax [2]: 100%
DC50 [3]: 1.33 µM

Compound: N#Cc1ccc(N2CCC(c3ccc(N4CCC(CN5CCN(c6ccc7c(c6)CN(C6CCC(=O)NC6=O)C7=O)CC5)CC4)cc3)CC2)c(F)c1C(F)(F)F (centres undefined)
Vdss [4]: 2 L/kg
half-life [5]: 19.5 h
DC50 [1]: 0.023 µM
bioavailability [6]: 48%
Emax [2]: 95%
DC50 [3]: 0.077 µM

Emax [30]: 100%
Compound: Cc1ncsc1-c1ccc([C@H](C)NC(=O)[C@@H]2C[C@@H](O)CN2C(=O)[C@@H](NC(=O)COCCCCCNc2ccc(C(=O)N[C@H]3C(C)(C)[C@H](Oc4ccc(C#N)c(Cl)c4)C3(C)C)cc2)C(C)(C)C)cc1

Compound: COc1cc(N2CCN(CC3CCN(c4ccc(C5CCN(c6ccc(C#N)c(C(F)(F)F)c6)CC5)cc4)CC3)CC2)cc2c1C(=O)N(C1CCC(=O)NC1=O)C2 (centres undefined)
bioavailability [11]: 19%
half-life [12]: 6.8 h
Vdss [13]: 13 L/kg
Vdss [4]: 2.4 L/kg
Vdss [14]: 7.8 L/kg
solubility [15]: < 2 µM
half-life [5]: 6.8 h
Vdss [16]: 2.4 L/kg
DC50 [1]: 0.026 µM
Papp [17]: < 0.05 ×10⁻⁶ cm/s
microsomal CLint [8]: < 3 µL/min/mg
bioavailability [6]: 50%
bioavailability [18]: 27%
half-life [19]: 9.1 h
Emax [2]: 92%
half-life [20]: 21 h
DC50 [3]: > 3 µM

DC50 [1]: 0.022 µM
microsomal CLint [8]: 21 µL/min/mg
Emax [2]: 100%
Compound: N#Cc1ccc(N2CCC(c3ccc(OCCCCN4CCN(c5ccc6c(c5)C(=O)N(C5CCC(=O)NC5=O)C6=O)CC4)cc3)CC2)cc1C(F)(F)F (centres undefined)
